The values below come from paper PMC9414233, “Iridoid Glycosides Isolated from Bellardia trixago Identified as Inhibitors of Orobanche cumana Radicle Growth” (Toxins, 2022).

The term inhibition denotes how much of the control response was suppressed. As a reminder, the EC50 is the midpoint of the concentration-response curve.

Values after ≈ are worked out from the molar mass of the structure shown.

Experiment [1] has as its system radicles of Orobanche crenata. More on the design: method as in PMID 24044614. The following applies: cited from earlier work.
Experiment [2] deals with Orobanche cumana radicles. The experiment can be described thus: Orobanche cumana radicle growth bioassay. It counts as in vivo. The following applies: for inhibition at 100 µg/mL: 168 h; for inhibition at 100 µg/mL / inhibition of radicle growth: 100 μg/mL, 7 days, relative to control (GR24 + 2% DMSO), ± standard error. How it is done: Allelopathic effects of each B. trixago extracts and isolated compounds were tested on Orobanche radicle growth according to previous protocols. Seeds of Orobanche cumana, were surface-sterilized by immersion in 0.5% (w/v) NaOCl and 0.02% (v/v) Tween 20, for 5 min, rinsed thoroughly with sterile distilled water, and dried in a laminar airflow cabinet. Approximately 100 seeds of Orobanche seeds were placed separately on 9 mm-diameter glass fiber filter paper disks (GFFP) (Whatman International Ltd., Maidstone, UK), moistened with 50 μL of sterile distilled water, and placed in incubators at 23 °C for 10 days inside Parafilm-sealed Petri dishes, to allow seed conditioning. Then, GFFP disks containing conditioned Orobanche seeds were transferred onto a sterile sheet of filter paper and transferred to new 9 cm sterile Petri dishes. Stock solutions of each B. trixago extract and isolated metabolite were respectively dissolved in dimethyl sulfoxide and subsequently individually diluted to 100 μg/mL using an aqueous solution of GR24 (10^−6 M). The final concentration of dimethyl sulfoxide was 2% in all test treatments. For each assay, 50 μL aliquots of each sample were applied to GFFP discs containing conditioned Orobanche seeds. Triplicate aliquots of a treatment only containing GR24 and 2% dimethyl sulfoxide was used as a control. Treated seeds were incubated in the dark at 23 °C for 7 days and radicle growth was determined for each GFFP disc, using a stereoscopic microscope (Leica S9i, Leica Microsystems GmbH, Wetzlar, Germany). For the characteristic of radicle growth, the value used was the average of 10 randomly selected radicles per GFFP disc. The percentage of radicle growth inhibition of each treatment was then calculated relative to the average radicle growth of control treatment.

On the set-up of experiment [3]: method as in doi:10.1076/phbi.37.4.318.5808, PMID 12036030. Particulars: cited from earlier work.
Details of experiment [4]: method as in doi:10.1076/phbi.37.4.318.5808. Particulars: cited from earlier work.
Experiment [5] relates to Raphidocelis subcapitata. Kind of experiment: Algal growth inhibition test (ISO 8692:2012). It counts as in vivo. The following applies: 72 h. Here is the method: (§1) The ecotoxicological tests were carried out on green freshwater algae Raphidocelis subcapitata, macrophyte Lepidium sativum, water flea Daphnia magna, nematode Caenorhabditis elegans and bacterium Aliivibrio fischeri to expand the range of endpoints due to differences in species sensitivity and exposure. Testing on R. subcapitata was performed using as endpoint the algal growth inhibition after 72 h of exposure and was based on ISO 8692:2012 [65]. The algal density was determined by spectrophotometric analysis (DR5000, Hach Lange GbH, Weinheim, Germany). Ecotoxicity tests were carried out in triplicate, at 25 ± 1 °C with constant illumination of 6700 lux. Testing on L. sativum was performed according to ISO 11269-1:2012 [66] considering germination and root elongation as endpoint after 72 h. Seeds (n = 10) were exposed in triplicate in Petri dishes and incubated at 25 ± 1 °C in darkness. Daphnia magna test was conducted according to UNI EN ISO 6341:2013 [67] and the endpoint evaluated was the immobilization after 24 h. Daphnids (less than 24 h old) were exposed to the samples at 20 ± 2 °C, in darkness without feeding. Testing on C. elegans was carried out, with a few modifications, according to the ASTM E2172-01 Standard Method (2014) using the 24 h mortality endpoint. The test was performed using age-synchronous adult nematodes exposed at 20 °C to compound 4, without feeding. […]

Experiment [6] relates to Lepidium sativum. The experiment can be described thus: whole plant or invertebrate. Particulars: 72 h, read-out: EC50 (germination and root elongation). It counts as in vivo. Here is the method: as §1
In experiment [7] the test system is Daphnia magna. Kind of experiment: Daphnia magna immobilization test (UNI EN ISO 6341:2013). It counts as in vivo. The following applies: 24 h. Here is the method: as §1
Experiment [8] has as its system Caenorhabditis elegans. Kind of experiment: C. elegans 24 h mortality test (ASTM E2172-01). It counts as in vivo. How it is done:
as §1

In experiment [9] the test system is Aliivibrio fischeri. Kind of experiment: Bioluminescence inhibition test (ISO 11348-3:2007, Microtox). It counts as in vivo. The following applies: 0.5 h, 30 min. Here is the method:
as §1

The subject of experiment [10] is Wistar rats. More on the design: method as in PMID 23195582. Particulars: cited from earlier work.

On to `O=C(O)c1ccccc1` [Compound 1, benzoic acid], for which the “inhibitory activity on radicles” value in experiment [1] is on record as “moderate inhibitory activity”.

Turning to `OCC1=CC[C@@H]2C=CO[C@@H](O[C@@H]3O[C@H](CO)[C@@H](O)[C@H](O)[C@H]3O)[C@H]12` [Compound 2, bartsioside], the inhibition at 100 µg/mL in experiment [2] came to 61.1 ± 1.5%.

Turning to `OCC1=C[C@@H](O)[C@@H]2C=CO[C@@H](O[C@@H]3O[C@H](CO)[C@@H](O)[C@H](O)[C@H]3O)[C@H]12` [Compound 3, aucubin], in experiment [2], the “inhibition of radicle growth” value was “no significant inhibitory activity”. In [3], the DPPH scavenging activity entry is on record as “no DPPH scavenging activity”. Besides, the “antioxidant activity in β-carotene bleaching assay” value (shortened to “antioxidant activity”) in experiment [4] was “inactive”.

Take `O=C(OCC1=C[C@@H](O)[C@@H]2C=CO[C@@H](O[C@@H]3O[C@H](CO)[C@@H](O)[C@H](O)[C@H]3O)[C@H]12)c1ccccc1` [Compound 4, melampyroside]: the “phytotoxicity observed on radicles” value in [2] (100 µg/mL) is “some degree of phytotoxicity observed as darkening”. In experiment [2], the inhibition at 100 µg/mL was 72.6%. For the same compound, the EC50 in [5] was not below 100 µg/mL; in experiment [6], not below 100 µg/mL; in [7], 33.3 µg/mL (≈ 73.8 µM); in experiment [8] it was 57.2 µg/mL (≈ 127 µM); in experiment [9] it was 76 µg/mL (≈ 169 µM). In addition, in [3], the DPPH scavenging activity result is “no DPPH scavenging activity”. Further, the “antioxidant activity” value in [4] was “pro-oxidant”. Also, the cardioactivity entry in experiment [10] is reported as “cardioactive”.

Consider `C=C1[C@H]2[C@H](O[C@@H]3O[C@H](CO)[C@@H](O)[C@H](O)[C@H]3O)OC=C(C(=O)OC)[C@H]2C[C@@H]1O` [Compound 5, gardoside methyl ester], for which the “inhibition of radicle growth” value in experiment [2] is listed as “no significant inhibitory activity”.

Turning to `COC(=O)C1=CO[C@@H](O[C@@H]2O[C@H](CO)[C@@H](O)[C@H](O)[C@H]2O)[C@H]2[C@@H]1CC[C@]2(C)O` [Compound 6, mussaenoside], the inhibition at 100 µg/mL in experiment [2] was determined as 65.9 ± 2.9%. Moreover, the DPPH scavenging activity entry in experiment [3] is listed as “no DPPH scavenging activity”. Further, the “antioxidant activity” value in [4] is recorded as “antioxidant”.
